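Following 48 hours of exposure in 96-well plates, responses at five concentrations were used to interpolate endpoints linearly. Here, GI50 denotes the concentration required for 50% inhibition of growth.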 Active and inactive are the calls of the source. No stated cut-off is given here; in the data, active = GI50 up to about 1.1 µM and inactive = higher.
How the values were obtained:
Experiment in all cases: inhibition of tumour cell growth, NCI panel, 48 h
NCI-H522 = tested on: NCI-H522
PC-3 = tested on: PC-3
UACC-257 = tested on: UACC-257
EKVX = tested on: EKVX
OVCAR-8 = tested on: OVCAR-8
NCI-H226 = tested on: NCI-H226
LOX IMVI = tested on: LOX IMVI
786-0 = tested on: 786-0
HT-29 = tested on: HT-29
IGROV-1 = tested on: IGROV-1
A498 = tested on: A498
ACHN = tested on: ACHN
DU-145 = tested on: DU-145
HCT-116 = tested on: HCT-116
OVCAR-4 = tested on: OVCAR-4
SF-539 = tested on: SF-539
OVCAR-3 = tested on: OVCAR-3
U-251 = tested on: U-251
SR = tested on: SR
HCC 2998 = tested on: HCC 2998

SMILES | GI50 (NCI-H522) | GI50 (PC-3) | GI50 (UACC-257) | GI50 (EKVX) | GI50 (OVCAR-8) | GI50 (NCI-H226) | GI50 (LOX IMVI) | GI50 (786-0) | GI50 (HT-29) | GI50 (IGROV-1) | GI50 (A498) | GI50 (ACHN) | GI50 (DU-145) | GI50 (HCT-116) | GI50 (OVCAR-4) | GI50 (SF-539) | GI50 (OVCAR-3) | GI50 (U-251) | GI50 (SR) | GI50 (HCC 2998)
CN(C)CCCOc1nc2c(c(=O)n(C)c(=O)n2C)n1C.SC1=NC=NC2=NC=NC12 | 2.79 µM (inactive) | 8.53 µM (inactive) | 6 µM (inactive) | 33.7 µM (inactive) | 22.2 µM (inactive) | 2.15 µM (inactive) | 0.303 µM (active) | 2.41 µM (inactive) | 5.2 µM (inactive) | 5.93 µM (inactive) | 32.8 µM (inactive) | 6.84 µM (inactive) | 0.692 µM (active) | 5.62 µM (inactive) | 2.25 µM (inactive) | 1.7 µM (inactive) | 0.656 µM (active) | 18.1 µM (inactive) |  | 
[N-]=[N+]=Nc1ccc(NCCCCCC(=O)ON2C(=O)CCC2=O)c([N+](=O)[O-])c1 | 39.3 µM (inactive) | 28.5 µM (inactive) | > 100 µM (inactive) | 98.9 µM (inactive) | 60.3 µM (inactive) | > 100 µM (inactive) | 48.8 µM (inactive) | > 100 µM (inactive) | > 100 µM (inactive) | > 100 µM (inactive) |  | 49.1 µM (inactive) | > 100 µM (inactive) | 39.6 µM (inactive) | > 100 µM (inactive) | 30.5 µM (inactive) | 54.3 µM (inactive) | > 100 µM (inactive) |  | 
CCOC(=O)c1c(N)sc2c1C(C(=O)OCC)CC2 (centres undefined) |  | 34.4 µM (inactive) | > 100 µM (inactive) | > 100 µM (inactive) | > 100 µM (inactive) | > 100 µM (inactive) |  | > 100 µM (inactive) | > 100 µM (inactive) | 44.7 µM (inactive) | 14.3 µM (inactive) | > 100 µM (inactive) |  | 48.4 µM (inactive) |  |  |  | 73.3 µM (inactive) | 40 µM (inactive) | > 100 µM (inactive)
C/C(=N/S(=O)(=O)c1ccc(Cl)c(Cl)c1)OCC(C)(C)C | > 100 µM (inactive) | > 100 µM (inactive) | > 100 µM (inactive) | > 100 µM (inactive) | > 100 µM (inactive) | > 100 µM (inactive) | > 100 µM (inactive) | > 100 µM (inactive) | > 100 µM (inactive) | > 100 µM (inactive) | > 100 µM (inactive) | > 100 µM (inactive) | > 100 µM (inactive) | > 100 µM (inactive) | > 100 µM (inactive) | > 100 µM (inactive) | > 100 µM (inactive) | > 100 µM (inactive) |  | 
O=C(NCCCCN(CCCNC(=O)C(F)(F)F)Cc1ccc2ccccc2c1)C(F)(F)F | 18.2 µM (inactive) |  | 17.5 µM (inactive) | 16.4 µM (inactive) | 16.9 µM (inactive) | 17.3 µM (inactive) | 14.1 µM (inactive) | 15.6 µM (inactive) | 13.7 µM (inactive) | 17.2 µM (inactive) | 20.3 µM (inactive) | 24.3 µM (inactive) | 21 µM (inactive) | 16 µM (inactive) | 17.6 µM (inactive) | 16.3 µM (inactive) |  | 26.4 µM (inactive) |  | 13.9 µM (inactive)
CC(C)SC(NC(=O)C1C(C)(C)CCC1(C)C)C(=O)O (centres undefined) |  | > 100 µM (inactive) |  | > 100 µM (inactive) | > 100 µM (inactive) | > 100 µM (inactive) | > 100 µM (inactive) | > 100 µM (inactive) |  | > 100 µM (inactive) | > 100 µM (inactive) | > 100 µM (inactive) | > 100 µM (inactive) | > 100 µM (inactive) |  | > 100 µM (inactive) |  | > 100 µM (inactive) |  | > 100 µM (inactive)
O=C1CC2(CCCc3sccc32)C(=O)N1 (centres undefined) | > 100 µM (inactive) | > 100 µM (inactive) | > 100 µM (inactive) | > 100 µM (inactive) | > 100 µM (inactive) | > 100 µM (inactive) | > 100 µM (inactive) | > 100 µM (inactive) | > 100 µM (inactive) | > 100 µM (inactive) | > 100 µM (inactive) | > 100 µM (inactive) | > 100 µM (inactive) | > 100 µM (inactive) | > 100 µM (inactive) | > 100 µM (inactive) | > 100 µM (inactive) | > 100 µM (inactive) |  | > 100 µM (inactive)
CC(NNC(=O)CC(=O)N(C(=O)c1ccccc1)c1ccc(Cl)cc1)c1cc2ccccc2oc1=O (centres undefined) | > 10 µM (inactive) | > 10 µM (inactive) | > 10 µM (inactive) | > 10 µM (inactive) | > 10 µM (inactive) | > 10 µM (inactive) | > 10 µM (inactive) | > 10 µM (inactive) | > 10 µM (inactive) | > 10 µM (inactive) | > 10 µM (inactive) | > 10 µM (inactive) | > 10 µM (inactive) | > 10 µM (inactive) | > 10 µM (inactive) | > 10 µM (inactive) | > 10 µM (inactive) | > 10 µM (inactive) |  | > 10 µM (inactive)
COc1ccc(-c2c(C#N)c(O)n(NS(=O)(=O)c3ccc(C)cc3)c(=O)c2C#N)cc1 | 13.8 µM (inactive) | 71.4 µM (inactive) | > 100 µM (inactive) | 70.8 µM (inactive) | 70 µM (inactive) | > 100 µM (inactive) | 45.4 µM (inactive) | 67.1 µM (inactive) | > 100 µM (inactive) | 35.8 µM (inactive) | 57.1 µM (inactive) | 47.9 µM (inactive) |  | 56 µM (inactive) | 81.5 µM (inactive) | 67.8 µM (inactive) |  | 67.8 µM (inactive) |  | 45.9 µM (inactive)
COC(=O)C(/C(=N/N)C(=O)Nc1cc(Cl)c(Cl)cc1Cl)c1nc2ccc(Cl)cc2nc1O (centres undefined) | 38.9 µM (inactive) | > 100 µM (inactive) | > 100 µM (inactive) | 29.1 µM (inactive) | > 100 µM (inactive) | > 100 µM (inactive) | > 100 µM (inactive) | > 100 µM (inactive) | > 100 µM (inactive) | 45 µM (inactive) | > 100 µM (inactive) | 44.8 µM (inactive) |  | > 100 µM (inactive) | 2.79 µM (inactive) | > 100 µM (inactive) | 95.3 µM (inactive) | > 100 µM (inactive) | 87.1 µM (inactive) | 
COc1c(-c2nc3ccc(N4CCN(C)CC4)nc3[nH]2)cc(OC)c2[nH]c(COC(C)=O)nc12 | 37.1 µM (inactive) |  | 24.8 µM (inactive) | 54.2 µM (inactive) | 50.4 µM (inactive) |  | 25.9 µM (inactive) | 22.8 µM (inactive) | 20.3 µM (inactive) | 65.9 µM (inactive) | 93.1 µM (inactive) | 30.3 µM (inactive) | 29 µM (inactive) | 20 µM (inactive) | 32.4 µM (inactive) | 14.9 µM (inactive) |  | 13.8 µM (inactive) | 3.78 µM (inactive) | 15.2 µM (inactive)
COc1cc(-c2cc(CCC(=O)Nc3ccccc3[N+](=O)[O-])n(-c3ccc([N+](=O)[O-])cc3[N+](=O)[O-])n2)ccc1O | > 10 µM (inactive) |  | > 10 µM (inactive) | > 10 µM (inactive) | > 10 µM (inactive) | > 10 µM (inactive) | > 10 µM (inactive) | > 10 µM (inactive) | > 10 µM (inactive) | > 10 µM (inactive) | > 10 µM (inactive) | 70.6 µM (inactive) |  | > 10 µM (inactive) | > 10 µM (inactive) | > 10 µM (inactive) | > 10 µM (inactive) | > 10 µM (inactive) | > 10 µM (inactive) | > 10 µM (inactive)
COC(=O)c1sc(=S)sc1SCc1ccccc1CSc1sc(=S)sc1C(=O)OC | > 100 µM (inactive) | > 100 µM (inactive) | > 100 µM (inactive) | > 100 µM (inactive) | > 100 µM (inactive) | > 100 µM (inactive) | > 100 µM (inactive) | 46.1 µM (inactive) | > 100 µM (inactive) | > 100 µM (inactive) | > 100 µM (inactive) | > 100 µM (inactive) | > 100 µM (inactive) | > 100 µM (inactive) | > 100 µM (inactive) |  | > 100 µM (inactive) | > 100 µM (inactive) |  | > 100 µM (inactive)
CN(C)CC1CCC/C(=C\c2ccc(Cl)c(Cl)c2)C1=O (centres undefined) | 2.13 µM (inactive) |  | 7.71 µM (inactive) | 10.8 µM (inactive) | 3.18 µM (inactive) | 11.4 µM (inactive) |  | 1.75 µM (inactive) | 8.45 µM (inactive) | 3.56 µM (inactive) | 13.9 µM (inactive) | 4.18 µM (inactive) | 10.9 µM (inactive) | 1.97 µM (inactive) | 3.05 µM (inactive) | 5.2 µM (inactive) | 4.31 µM (inactive) | 2.65 µM (inactive) | 1.08 µM (active) | 10.7 µM (inactive)
C/C=C/C(C#N)(/C=C/c1ccccc1)OP1(=O)OC(c2ccccc2)C(C)N1C (centres undefined) | 20.7 µM (inactive) | 17 µM (inactive) | 19.1 µM (inactive) | 20.6 µM (inactive) | 17.9 µM (inactive) |  | 18.2 µM (inactive) | 17.1 µM (inactive) | 19.7 µM (inactive) | 16.4 µM (inactive) | 20.1 µM (inactive) | 26.9 µM (inactive) | 30 µM (inactive) | 16.6 µM (inactive) |  | 17.8 µM (inactive) | 19.5 µM (inactive) | 17.2 µM (inactive) |  | 14 µM (inactive)
